Experimental data published in ChEMBL document CHEMBL6127038, “How many organic small molecules might be used to treat COVID-19? From natural products to synthetic agents” (Eur J Med Chem, 2024).

Columns and labels:
[1] = target: T1, Replicase polyprotein 1ab (Severe acute respiratory syndrome coronavirus 2, UniProt P0DTD1); assay: Inhibition of SARS-CoV-2 RdRp
[2] = Inhibition of DENV-2 NS2B/NS3 protease; set-up: species or system dengue virus type 2
[3] = target: Replicase polyprotein 1ab (Human coronavirus 229E, UniProt P0C6X1); assay: Inhibition of HCov-229E 3CLpro by FRET assay
SARS-CoV-2 [4] = assay: Antiviral activity against SARS-CoV-2 infected in human HPAEpiC cells assessed as reduction in viral growth; format: functional, organism-based; conditions: Severe acute respiratory syndrome coronavirus 2, HPAEpiC
SARS-CoV-2 [5] = assay: Anti-viral activity against SARS-CoV-2 infected in human A549 cells expressing hACE2 by firefly reporter assay; format: functional, organism-based; conditions: Severe acute respiratory syndrome coronavirus 2, A549
Procathepsin L = Procathepsin L (Homo sapiens, UniProt P07711); assay: Inhibition of cathepsin L (unknown origin)
[6] = target: T1, Replicase polyprotein 1ab; assay: Inhibition of SARS-CoV-2 3CLPro
SARS-CoV-2 [7] = assay: Antiviral activity against wild type SARS-CoV-2 Omicron BA.5 infected in HEK293T cells assessed as reduction in viral replication measured after 48 hrs by Nano-Glo luciferase assay; format: functional, organism-based; conditions: Severe acute respiratory syndrome coronavirus 2, HEK-293T
SARS-CoV-2 [8] = assay: Antiviral activity against wild type SARS-CoV-2 Omicron BA.1 infected in HEK293T cells assessed as reduction in viral replication measured after 48 hrs by Nano-Glo luciferase assay; format: functional, organism-based; conditions: Severe acute respiratory syndrome coronavirus 2, Omicron BA.1, HEK-293T
SARS-CoV-2 [9] = assay: Antiviral activity against SARS-CoV-2 infected in human Calu-3 cells assessed as reduction in viral growth measured after 48 hrs by qRT-PCR analysis; format: functional, organism-based; conditions: Severe acute respiratory syndrome coronavirus 2, Calu-3, 48 h

Replicase polyprotein 1ab (Human coronavirus 229E, UniProt P0C6X1), sequence (P0C6X1 2966-3267 limits assumed): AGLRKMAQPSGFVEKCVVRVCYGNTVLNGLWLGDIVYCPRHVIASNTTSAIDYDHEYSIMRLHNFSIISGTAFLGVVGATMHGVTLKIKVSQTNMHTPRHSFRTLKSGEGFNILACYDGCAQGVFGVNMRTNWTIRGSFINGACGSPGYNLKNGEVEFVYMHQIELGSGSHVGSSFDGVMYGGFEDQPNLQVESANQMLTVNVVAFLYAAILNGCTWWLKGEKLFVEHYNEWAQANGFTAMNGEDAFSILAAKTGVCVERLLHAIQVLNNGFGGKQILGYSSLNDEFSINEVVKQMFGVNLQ
Procathepsin L, sequence (P07711 whole entry): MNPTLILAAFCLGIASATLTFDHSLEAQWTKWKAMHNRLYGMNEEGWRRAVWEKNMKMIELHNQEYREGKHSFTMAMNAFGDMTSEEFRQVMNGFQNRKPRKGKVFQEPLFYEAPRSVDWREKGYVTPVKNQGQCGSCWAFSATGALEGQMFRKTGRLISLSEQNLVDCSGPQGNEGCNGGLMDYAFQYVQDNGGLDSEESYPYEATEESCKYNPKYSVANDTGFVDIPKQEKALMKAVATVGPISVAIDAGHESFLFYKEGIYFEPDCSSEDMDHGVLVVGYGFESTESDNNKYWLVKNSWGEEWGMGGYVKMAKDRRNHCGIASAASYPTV

CCCCC/C=C\C/C=C\CCCCCCCCOC(=O)[C@H](C)NP(=O)(OC[C@H]1O[C@@](C#N)(c2ccc3c(N)ncnn23)[C@H](O)[C@@H]1O)Oc1ccccc1 (stereo partly specified)
EC50 [1]: 440 nM

C=C1NC(=O)[C@]2(C)CSC(=N2)c2csc(n2)[C@]2(C)CSC(=N2)[C@@H]([C@@H](C)CC)NC(=O)[C@@H](C)NC(=O)/C(=C\C(C)C)COC(=O)c2csc(n2)[C@H](C(C)C)N(C)C(=O)[C@H](COC)NC1=O
IC50 [2]: 560 nM | IC50 [3]: 2390 nM

C=C1C(=O)[C@@]23C(=O)[C@@H](O)[C@@H]4C(C)(C)C[C@@H]5C(=O)OCC54[C@@H]2CC[C@@H]1[C@H]3OC(=O)C1Cc2ccccc2C1 (stereo partly specified)
EC50 (SARS-CoV-2 [4]): 19 nM

CCOC(=O)/C=C/[C@H](C[C@@H]1CCNC1=O)NC(=O)[C@H](Cc1ccccc1)NC(=O)[C@@H](N)Cc1ccccc1
IC50 (SARS-CoV-2 [5]): 8.2 nM | IC50 (Procathepsin L): 60 nM

CO[C@@H]1C[C@H](O[C@H]2C[C@](C)(CO)[C@@H]3CC[C@@]4(C)[C@@H]5CC[C@@H]6[C@H](CC(=O)[C@]7(C)C8=COC(N[C@H](C)C(C)C)=N[C@]8(C)[C@@H](O)[C@@H]8O[C@@]687)[C@@]5(C)CC[C@@H]4[C@@]3(C)[C@@H]2O)O[C@H](C)[C@H]1O
IC50 [6]: 74 nM | IC50 [3]: 6.6 nM

CCCCCCCCCC[C@@H]1CCC[C@]2(C=C(CO)[C@H]3CC(=O)C(C)=C[C@H]3O2)O1
EC50 (SARS-CoV-2 [7]): 160 nM | EC50 (SARS-CoV-2 [8]): 100 nM

CCC(CC)COC(=O)[C@H](C)N[P@](=O)(OC[C@H]1O[C@@](c2noc(C(F)(F)F)n2)(c2ccc3c(N)ncnn23)[C@@H]2OC(C)(C)O[C@@H]21)Oc1ccccc1
IC50 (SARS-CoV-2 [9]): 19300 nM
